These are literature values, as cited in patent US20090285811A1, “ANTI-INFLAMMATORY AND IMMUNOSUPPRESSIVE GLUCOCORTICOID STEROIDS” (Auspex Pharmaceuticals, Inc., priority 2008, published 2009).

Read-outs that look alike come from different tables or passages of the source.

One data set concerns the target T1, glucocorticoid receptor (Homo sapiens, UniProt P04150).
T1 sequence (P04150 1-777): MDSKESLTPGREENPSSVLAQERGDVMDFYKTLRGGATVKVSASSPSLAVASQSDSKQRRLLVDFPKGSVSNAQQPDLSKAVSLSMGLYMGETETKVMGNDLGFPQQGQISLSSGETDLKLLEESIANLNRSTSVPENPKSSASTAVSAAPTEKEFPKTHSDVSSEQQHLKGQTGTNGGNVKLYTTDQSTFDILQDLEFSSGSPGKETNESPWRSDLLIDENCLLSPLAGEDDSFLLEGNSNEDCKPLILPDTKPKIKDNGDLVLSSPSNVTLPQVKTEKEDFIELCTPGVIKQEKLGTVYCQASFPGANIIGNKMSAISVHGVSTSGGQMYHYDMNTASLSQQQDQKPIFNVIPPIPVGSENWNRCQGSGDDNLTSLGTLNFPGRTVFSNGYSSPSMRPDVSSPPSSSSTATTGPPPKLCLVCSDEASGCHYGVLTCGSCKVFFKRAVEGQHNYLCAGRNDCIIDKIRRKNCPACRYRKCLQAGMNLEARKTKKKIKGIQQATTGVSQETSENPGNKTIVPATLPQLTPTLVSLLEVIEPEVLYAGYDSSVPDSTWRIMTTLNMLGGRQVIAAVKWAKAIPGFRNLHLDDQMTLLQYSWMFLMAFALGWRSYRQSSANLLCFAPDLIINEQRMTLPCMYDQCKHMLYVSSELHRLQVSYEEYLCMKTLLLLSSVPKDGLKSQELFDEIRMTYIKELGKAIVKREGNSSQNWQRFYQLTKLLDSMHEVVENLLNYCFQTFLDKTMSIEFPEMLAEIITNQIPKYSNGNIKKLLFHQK
The following applies: primary human CYP3A metabolites of budesonide.

As to `C[C@]12C=CC(=O)C=C1CC[C@@H]1[C@@H]2[C@@H](O)C[C@@]2(C)[C@H]1C[C@@H](O)[C@]2(O)C(=O)CO` [16α-hydroxyprednisolone], the “potency compared with budesonide” value at glucocorticoid receptor was “significantly less potent”.

In the case of `CCCC1O[C@@H]2C[C@H]3[C@@H]4C[C@@H](O)C5=CC(=O)C=C[C@]5(C)[C@H]4[C@@H](O)C[C@]3(C)[C@]2(C(=O)CO)O1` (stereo partly drawn) [6β-hydroxybudesonide], the “potency compared with budesonide” value at glucocorticoid receptor is on record as “significantly less potent”.

For `CCCC1O[C@@H]2C[C@H]3[C@@H]4CCC5=CC(=O)C=C[C@]5(C)[C@H]4[C@@H](O)C[C@]3(C)[C@]2(C(=O)CO)O1` (stereo partly drawn) [Budesonide, 16,17-(butylidenebis(oxy))-11,21-dihydroxy-, (11-β,16-α)-pregna-1,4-diene-3,20-dione], the systemic availability entry was “approximately 12%” (after oral administration) and “about 20%” (intranasal administration). Further, the elimination half-life entry (in vivo) is “approximately 2 hours”. The clearance result (non-oral routes of administration) was “about 20 mL/min/Kg” and the clearance (oral administration) is about 40 mL/min/kg.
